Experimental data: the NIST ThermoML archive (doi:10.1016/j.jct.2012.04.016)
Numbers after ± are expanded uncertainties.

Conditions: Liquid; Ebulliometric method (Recirculating still)

Structure (SMILES)	Normal boiling temperature [°C]
Cc1ccc(C)c(C)c1 [1,2,4-trimethylbenzene]	169.30 ± 0.22
O=CN1CCOCC1 [N-formylmorpholine]	240.0 ± 0.21
CCCCc1ccccc1 [butylbenzene]	183.2 ± 0.22
CCc1ccccc1 [ethylbenzene]	136.20 ± 0.21
CC(C)c1ccccc1 [isopropylbenzene]	152.40 ± 0.22
